The source made the active and inactive calls. The calls are words filed in the database; no cut-off is given here.
Tests used:
Pancreatic islet [1] = assay: Induction of insulin secretion in human pancreatic islets at 30 mM in presence of glucose; format: functional, cell-based
[2] = target: cAMP and cAMP-inhibited cGMP 3',5'-cyclic phosphodiesterase 10A (Homo sapiens, UniProt Q9Y233); assay: Inhibition of human recombinant full length PDE10A expressed in sf9 cells by scintillation proximity assay
Pancreatic islet [3] = assay: Induction of insulin secretion in human pancreatic islets at 2 to 12 mM; format: functional, cell-based
[4] = Ratio of drug level in brain to plasma (unknown origin) after 2 hrs; format: ADME; details: brain and plasma; read-out: BPR
Pancreatic islet [5] = assay: Induction of insulin secretion in human pancreatic islets at 1 uM in presence of glucose; format: functional, cell-based
Pancreatic islet [6] = assay: Induction of insulin secretion in human pancreatic islets at 15 mM in presence of glucose; format: functional, cell-based
[7] = target: Dual specificity calcium/calmodulin-dependent 3',5'-cyclic nucleotide phosphodiesterase 1B (Homo sapiens, UniProt Q01064); assay: Inhibition of human PDE1B
[8] = target: cGMP-dependent 3',5'-cyclic phosphodiesterase (Homo sapiens, UniProt O00408); assay: Inhibition of human PDE2A
[9] = target: cGMP-inhibited 3',5'-cyclic phosphodiesterase 3B (Homo sapiens, UniProt Q13370); assay: Inhibition of human PDE3B
[10] = target: 3',5'-cyclic-AMP phosphodiesterase 4D (Homo sapiens, UniProt Q08499); assay: Inhibition of human PDE4D
[11] = target: cGMP-specific 3',5'-cyclic phosphodiesterase (Homo sapiens, UniProt O76074); assay: Inhibition of human PDE5A
[12] = target: High affinity 3',5'-cyclic-AMP phosphodiesterase 7A (Homo sapiens, UniProt Q13946); assay: Inhibition of human PDE7A
[13] = target: High affinity cGMP-specific 3',5'-cyclic phosphodiesterase 9A (Homo sapiens, UniProt O76083); assay: Inhibition of human PDE9A
[14] = target: 3',5'-cyclic phosphodiesterase; assay: Inhibition of human PDE; format: protein assay
Homo sapiens [15] = species: Homo sapiens; assay: Selectivity ratio of IC50 for human PDE1B to IC50 for human recombinant full length PDE10A expressed in sf9 cells
Homo sapiens [16] = species: Homo sapiens; assay: Selectivity ratio of IC50 for human PDE2A to IC50 for human recombinant full length PDE10A expressed in sf9 cells
Homo sapiens [17] = species: Homo sapiens; assay: Selectivity ratio of IC50 for human PDE3B to IC50 for human recombinant full length PDE10A expressed in sf9 cells
Homo sapiens [18] = species: Homo sapiens; assay: Selectivity ratio of IC50 for human PDE4D to IC50 for human recombinant full length PDE10A expressed in sf9 cells
Homo sapiens [19] = species: Homo sapiens; assay: Selectivity ratio of IC50 for human PDE5A to IC50 for human recombinant full length PDE10A expressed in sf9 cells
Homo sapiens [20] = species: Homo sapiens; assay: Selectivity ratio of IC50 for human PDE7A to IC50 for human recombinant full length PDE10A expressed in sf9 cells
Homo sapiens [21] = species: Homo sapiens; assay: Selectivity ratio of IC50 for human PDE9A to IC50 for human recombinant full length PDE10A expressed in sf9 cells
Cytochrome P450 3A4 = Cytochrome P450 3A4 (Homo sapiens, UniProt P08684); assay: Inhibition of recombinant CYP3A4 (unknown origin); format: ADME
Cytochrome P450 2C9 = Cytochrome P450 2C9 (Homo sapiens, UniProt P11712); assay: Inhibition of recombinant CYP2C9 (unknown origin); format: ADME
Cytochrome P450 2C19 = Cytochrome P450 2C19 (Homo sapiens, UniProt P33261); assay: Inhibition of recombinant CYP2C19 (unknown origin); format: ADME
Cytochrome P450 2D6 = Cytochrome P450 2D6 (Homo sapiens, UniProt P10635); assay: Inhibition of recombinant CYP2D6 (unknown origin); format: ADME
Cytochrome P450 1A2 = target: T1, Cytochrome P450 1A2 (Homo sapiens, UniProt P05177); assay: Inhibition of recombinant CYP1A2 (unknown origin); format: ADME
T1 sequence (P05177 whole entry): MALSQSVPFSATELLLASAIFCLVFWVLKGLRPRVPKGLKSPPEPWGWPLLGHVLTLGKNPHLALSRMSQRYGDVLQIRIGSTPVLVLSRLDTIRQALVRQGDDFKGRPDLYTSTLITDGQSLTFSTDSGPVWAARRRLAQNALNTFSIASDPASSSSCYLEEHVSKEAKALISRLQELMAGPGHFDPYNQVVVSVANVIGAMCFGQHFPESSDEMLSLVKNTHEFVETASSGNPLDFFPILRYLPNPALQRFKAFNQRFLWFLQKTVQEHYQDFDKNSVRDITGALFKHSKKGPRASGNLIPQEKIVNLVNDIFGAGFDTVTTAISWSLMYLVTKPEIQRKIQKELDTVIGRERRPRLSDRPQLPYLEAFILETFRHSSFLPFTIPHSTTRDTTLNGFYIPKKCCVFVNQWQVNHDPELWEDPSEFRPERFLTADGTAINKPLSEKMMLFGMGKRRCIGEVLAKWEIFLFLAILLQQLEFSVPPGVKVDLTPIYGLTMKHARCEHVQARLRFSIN

[22] = Stability in human liver microsomes; format: ADME, Microsome
[23] = Stability in rat liver microsomes; format: ADME, Microsome
[24] = Stability in dog liver microsomes; format: ADME, Canis lupus familiaris, Microsome
[25] = Stability in mouse liver microsomes; format: ADME, Microsome
[26] = Oral bioavailability in rat at 10 mg/kg; format: ADME, organism-based; details: in vivo
[27] = Cardiotoxicity in anesthetized guinea pig; format: toxicity, Cavia porcellus
[28] = target: Voltage-gated inwardly rectifying potassium channel KCNH2 (Homo sapiens, UniProt Q12809); assay: Inhibition of human ERG
[29] = Stability in cynomolgus monkey liver microsomes; format: ADME, Macaca fascicularis, Microsome
[30] = Clearance in rat at 10 mg/kg; format: ADME, organism-based; details: in vivo
[31] = Half life in rat at 10 mg/kg, iv; format: ADME, organism-based; details: in vivo
[32] = Cmax in rat at 10 mg/kg; format: ADME, organism-based; design: dose 10 mg/kg; details: in vivo
[33] = Volume of distribution in steady state in rat at 10 mg/kg; format: ADME, organism-based; details: in vivo, read-out: Vdss
Rattus norvegicus [34] = species: Rattus norvegicus; assay: Induction of insulin secretion in rat pancreatic islets at 0.1 to 3 uM in presence of 3 mM glucose; format: functional
Rattus norvegicus [35] = species: Rattus norvegicus; assay: Induction of insulin secretion in rat pancreatic islets at 0.1 to 3 uM in presence of 12 mM glucose; format: functional
Rattus norvegicus [36] = assay: Antidiabetic activity in fasted Sprague-Dawley rat assessed as reduction in blood glucose level at 3 to 30 mg/kg, po administered 3 hrs prior to glucose challenge measured up to 2 hrs by OGTT; format: functional, organism-based
Mus musculus = assay: Antidiabetic activity in ob/ob mouse assessed as reduction in blood glucose level at 5 to 20 mg/kg, po administered 3 hrs prior to glucose challenge measured up to 2 hrs by OGTT; format: functional, organism-based

Chain of cAMP and cAMP-inhibited cGMP 3',5'-cyclic phosphodiesterase 10A (Q9Y233 whole entry): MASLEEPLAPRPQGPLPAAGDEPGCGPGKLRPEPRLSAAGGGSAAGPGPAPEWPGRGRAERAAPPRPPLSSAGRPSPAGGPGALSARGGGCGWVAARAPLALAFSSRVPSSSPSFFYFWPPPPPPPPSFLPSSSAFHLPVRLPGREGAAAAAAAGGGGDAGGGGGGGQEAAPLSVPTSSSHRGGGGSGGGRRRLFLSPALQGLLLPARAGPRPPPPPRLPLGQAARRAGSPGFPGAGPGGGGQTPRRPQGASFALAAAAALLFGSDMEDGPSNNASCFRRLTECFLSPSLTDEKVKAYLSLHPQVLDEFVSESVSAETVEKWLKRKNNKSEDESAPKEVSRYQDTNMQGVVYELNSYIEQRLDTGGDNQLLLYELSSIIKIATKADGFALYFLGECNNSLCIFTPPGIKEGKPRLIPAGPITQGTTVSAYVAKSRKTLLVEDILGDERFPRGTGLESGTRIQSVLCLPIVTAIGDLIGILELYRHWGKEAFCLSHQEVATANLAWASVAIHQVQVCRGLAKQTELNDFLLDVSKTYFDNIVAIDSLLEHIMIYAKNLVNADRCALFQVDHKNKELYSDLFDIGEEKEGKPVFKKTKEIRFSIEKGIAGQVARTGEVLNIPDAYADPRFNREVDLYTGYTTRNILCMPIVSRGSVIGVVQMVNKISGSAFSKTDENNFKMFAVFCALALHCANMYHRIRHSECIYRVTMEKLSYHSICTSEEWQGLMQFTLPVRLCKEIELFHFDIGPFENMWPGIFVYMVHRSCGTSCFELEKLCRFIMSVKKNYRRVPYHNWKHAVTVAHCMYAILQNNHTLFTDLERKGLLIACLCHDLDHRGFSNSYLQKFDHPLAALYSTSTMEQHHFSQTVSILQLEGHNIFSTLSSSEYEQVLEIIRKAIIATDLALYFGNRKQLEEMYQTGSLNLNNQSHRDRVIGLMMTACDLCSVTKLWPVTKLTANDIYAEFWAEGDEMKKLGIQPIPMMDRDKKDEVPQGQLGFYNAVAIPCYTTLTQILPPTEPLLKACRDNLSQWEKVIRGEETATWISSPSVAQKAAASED
Chain of 3',5'-cyclic-AMP phosphodiesterase 4D (Q08499 whole entry): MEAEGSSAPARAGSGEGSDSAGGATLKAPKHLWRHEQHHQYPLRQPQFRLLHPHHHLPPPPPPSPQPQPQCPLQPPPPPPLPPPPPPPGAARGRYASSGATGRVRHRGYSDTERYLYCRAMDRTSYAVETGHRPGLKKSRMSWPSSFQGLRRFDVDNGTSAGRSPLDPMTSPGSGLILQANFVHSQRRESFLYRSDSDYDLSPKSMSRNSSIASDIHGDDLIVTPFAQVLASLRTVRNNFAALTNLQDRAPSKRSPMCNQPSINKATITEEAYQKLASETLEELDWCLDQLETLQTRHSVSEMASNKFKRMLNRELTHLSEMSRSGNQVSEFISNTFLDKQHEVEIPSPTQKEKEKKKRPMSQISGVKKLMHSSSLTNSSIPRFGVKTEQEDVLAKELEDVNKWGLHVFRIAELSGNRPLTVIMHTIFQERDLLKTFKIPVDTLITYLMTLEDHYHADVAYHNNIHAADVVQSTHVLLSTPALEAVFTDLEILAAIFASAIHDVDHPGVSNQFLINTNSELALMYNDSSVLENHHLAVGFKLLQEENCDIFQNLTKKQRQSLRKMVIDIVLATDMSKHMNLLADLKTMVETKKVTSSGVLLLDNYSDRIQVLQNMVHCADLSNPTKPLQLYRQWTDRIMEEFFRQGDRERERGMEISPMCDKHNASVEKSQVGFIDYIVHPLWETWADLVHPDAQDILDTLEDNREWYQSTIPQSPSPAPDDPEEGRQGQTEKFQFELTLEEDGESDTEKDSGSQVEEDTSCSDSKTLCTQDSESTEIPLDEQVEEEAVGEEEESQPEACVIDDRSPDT
Chain of Dual specificity calcium/calmodulin-dependent 3',5'-cyclic nucleotide phosphodiesterase 1B (Q01064 whole entry): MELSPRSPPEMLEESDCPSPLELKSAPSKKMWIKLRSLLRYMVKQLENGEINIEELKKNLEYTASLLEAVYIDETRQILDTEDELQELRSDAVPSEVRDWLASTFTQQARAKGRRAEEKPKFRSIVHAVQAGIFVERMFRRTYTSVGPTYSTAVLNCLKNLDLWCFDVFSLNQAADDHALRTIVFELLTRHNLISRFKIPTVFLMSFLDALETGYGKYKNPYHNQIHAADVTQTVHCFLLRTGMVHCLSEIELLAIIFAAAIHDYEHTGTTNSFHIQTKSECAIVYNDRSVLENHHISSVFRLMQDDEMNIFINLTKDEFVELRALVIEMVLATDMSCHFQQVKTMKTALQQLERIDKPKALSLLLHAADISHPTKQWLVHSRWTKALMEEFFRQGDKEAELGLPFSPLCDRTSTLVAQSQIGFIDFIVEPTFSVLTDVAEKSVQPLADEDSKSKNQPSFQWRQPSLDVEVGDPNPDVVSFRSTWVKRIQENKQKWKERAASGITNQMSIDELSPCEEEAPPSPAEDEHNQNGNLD
Chain of High affinity cGMP-specific 3',5'-cyclic phosphodiesterase 9A (O76083 whole entry): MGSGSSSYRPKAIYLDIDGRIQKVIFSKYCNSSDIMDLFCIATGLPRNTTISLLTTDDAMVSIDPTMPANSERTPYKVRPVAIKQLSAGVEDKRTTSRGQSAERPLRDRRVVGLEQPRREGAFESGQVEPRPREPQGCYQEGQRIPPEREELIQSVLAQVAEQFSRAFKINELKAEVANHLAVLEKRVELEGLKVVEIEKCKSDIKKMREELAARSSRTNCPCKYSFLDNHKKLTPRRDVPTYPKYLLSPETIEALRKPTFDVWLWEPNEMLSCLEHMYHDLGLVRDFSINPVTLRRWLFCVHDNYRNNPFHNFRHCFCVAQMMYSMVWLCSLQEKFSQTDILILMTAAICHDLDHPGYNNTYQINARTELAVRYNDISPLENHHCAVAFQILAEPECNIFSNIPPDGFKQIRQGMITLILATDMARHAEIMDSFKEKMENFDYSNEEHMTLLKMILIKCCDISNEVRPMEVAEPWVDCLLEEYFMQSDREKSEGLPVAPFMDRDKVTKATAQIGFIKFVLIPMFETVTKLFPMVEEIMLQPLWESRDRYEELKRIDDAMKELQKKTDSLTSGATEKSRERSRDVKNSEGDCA
Chain of Cytochrome P450 2C19 (P33261 whole entry): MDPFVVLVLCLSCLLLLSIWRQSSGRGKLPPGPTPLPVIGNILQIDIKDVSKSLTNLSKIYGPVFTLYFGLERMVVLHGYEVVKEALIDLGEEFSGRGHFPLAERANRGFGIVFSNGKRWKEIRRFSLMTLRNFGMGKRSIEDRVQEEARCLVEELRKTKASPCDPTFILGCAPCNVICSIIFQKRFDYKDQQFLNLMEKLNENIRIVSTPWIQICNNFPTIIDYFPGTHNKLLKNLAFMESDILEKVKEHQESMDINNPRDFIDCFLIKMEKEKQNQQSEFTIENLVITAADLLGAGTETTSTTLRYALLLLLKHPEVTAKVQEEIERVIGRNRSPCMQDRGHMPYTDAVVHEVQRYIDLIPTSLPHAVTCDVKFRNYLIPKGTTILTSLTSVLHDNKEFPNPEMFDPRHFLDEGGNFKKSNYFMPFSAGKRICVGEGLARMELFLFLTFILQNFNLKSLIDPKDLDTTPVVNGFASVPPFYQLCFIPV
Chain of Cytochrome P450 2D6 (P10635 whole entry): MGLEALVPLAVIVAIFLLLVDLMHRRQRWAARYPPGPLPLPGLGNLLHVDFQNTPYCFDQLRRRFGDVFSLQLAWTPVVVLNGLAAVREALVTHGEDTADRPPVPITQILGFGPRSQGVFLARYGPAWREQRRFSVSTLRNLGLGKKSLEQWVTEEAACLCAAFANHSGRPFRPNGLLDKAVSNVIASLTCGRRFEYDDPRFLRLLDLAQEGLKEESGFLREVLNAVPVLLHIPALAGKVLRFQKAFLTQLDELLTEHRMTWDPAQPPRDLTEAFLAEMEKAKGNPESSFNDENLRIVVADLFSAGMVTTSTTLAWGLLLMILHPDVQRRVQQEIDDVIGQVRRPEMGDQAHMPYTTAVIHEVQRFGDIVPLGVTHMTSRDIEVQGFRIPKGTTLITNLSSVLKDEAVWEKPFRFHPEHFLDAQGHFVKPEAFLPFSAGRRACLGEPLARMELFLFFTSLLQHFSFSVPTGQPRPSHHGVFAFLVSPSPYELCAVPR
Chain of Cytochrome P450 3A4 (P08684 whole entry): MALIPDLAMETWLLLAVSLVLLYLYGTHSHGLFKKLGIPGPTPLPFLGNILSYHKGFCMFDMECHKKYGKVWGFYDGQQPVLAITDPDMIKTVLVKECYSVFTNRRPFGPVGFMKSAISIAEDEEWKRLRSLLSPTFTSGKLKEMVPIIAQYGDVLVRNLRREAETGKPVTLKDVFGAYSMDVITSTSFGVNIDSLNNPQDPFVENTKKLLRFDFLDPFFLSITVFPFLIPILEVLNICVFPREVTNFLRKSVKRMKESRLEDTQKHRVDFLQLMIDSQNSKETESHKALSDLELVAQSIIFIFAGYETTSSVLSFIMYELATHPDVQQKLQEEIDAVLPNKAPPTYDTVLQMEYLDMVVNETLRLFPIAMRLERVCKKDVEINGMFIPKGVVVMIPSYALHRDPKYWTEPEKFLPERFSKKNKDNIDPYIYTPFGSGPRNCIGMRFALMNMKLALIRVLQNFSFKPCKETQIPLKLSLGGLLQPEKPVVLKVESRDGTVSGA
Chain of Cytochrome P450 2C9 (P11712 whole entry): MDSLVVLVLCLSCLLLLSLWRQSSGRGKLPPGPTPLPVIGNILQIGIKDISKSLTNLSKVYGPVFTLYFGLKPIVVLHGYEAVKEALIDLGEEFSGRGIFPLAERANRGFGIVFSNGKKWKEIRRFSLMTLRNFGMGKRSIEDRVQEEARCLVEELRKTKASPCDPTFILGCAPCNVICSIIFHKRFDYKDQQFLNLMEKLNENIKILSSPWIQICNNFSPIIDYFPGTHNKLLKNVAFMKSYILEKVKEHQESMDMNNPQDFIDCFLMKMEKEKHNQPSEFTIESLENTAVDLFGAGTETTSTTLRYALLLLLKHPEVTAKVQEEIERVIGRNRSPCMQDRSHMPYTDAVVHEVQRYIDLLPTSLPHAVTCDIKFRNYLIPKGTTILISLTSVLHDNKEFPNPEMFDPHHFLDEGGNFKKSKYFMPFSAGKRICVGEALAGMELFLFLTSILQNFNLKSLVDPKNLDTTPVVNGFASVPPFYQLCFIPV

In the case of `[Cl-].[K+]`, the Activity (Pancreatic islet [1]) is reported as “Active”.
In the case of `O=c1[nH]c(-c2ccc(-c3c(/C=C/c4ccc5ccccc5n4)nc4c(N5CCOCC5)ccnn34)cc2)no1`, the IC50 [2] is reported as 3.3 nM.
`CC(=O)NS(=O)(=O)c1ccc(-c2c(/C=C/c3ccc4ccccc4n3)nc3c(N4CCOCC4)ccnn23)cc1` gave an IC50 [2] of 2.2 nM.
With `OC[C@H]1OC(O)[C@H](O)[C@@H](O)[C@@H]1O` (stereo partly specified) the Activity (Pancreatic islet [3]) was “Active”.
`NS(=O)(=O)N1CCN(c2c(CSc3ccc4ccccc4n3)nc3c(N4CCOCC4)ccnn23)CC1` showed an IC50 [2] of 13.8 nM and a Kp at 2 h [4] of 0.31.
For `Oc1ncn(-c2ccc(-c3c(/C=C/c4ccc5ccccc5n4)nc4c(N5CCOCC5)ccnn34)cc2)n1`, the IC50 [2] was 7.4 nM.
For `O=C(O)C1CCN(c2ccc(-c3c([C@H]4C[C@H](c5ccc6ccccc6n5)C4)nc4c(N5CCOCC5)ccnn34)cc2)CC1`, the IC50 [2] was 3.2 nM and the Kp at 2 h [4] was 0.02.
For `c1ccc2nc(Cc3nc4c(N5CCOCC5)ccnn4c3-c3ccc(N4CCNCC4)nc3)ccc2c1`, the IC50 [2] was 123 nM and the Kp at 2 h [4] was 0.45.
`c1ccc2nc(SCc3nc4c(N5CCOCC5)ccnn4c3-c3ccc(N4CCNCC4)nc3)ccc2c1` gave a Kp at 2 h [4] of 0.82.
For `COc1ccc(Cl)cc1C(=O)NCCc1ccc(S(=O)(=O)NC(=O)NC2CCCCC2)cc1`, the Activity (Pancreatic islet [5]) was “Active”.
Work on `Oc1nc(O)c(-c2ccc(-c3c(/C=C/c4ccc5ccccc5n4)nc4c(N5CCOCC5)ccnn34)cc2)o1` yielded an IC50 [2] of 8.5 nM and a Kp at 2 h [4] of 0.01.
With `O=C(O)CCc1ccc(-c2c([C@H]3C[C@H](c4ccc5ccccc5n4)C3)nc3c(N4CCOCC4)ccnn23)cc1` the IC50 [2] was 2.4 nM.
For `N=C(N)NCCC[C@H](N)C(=O)O`, the Activity (Pancreatic islet [6]) was “Active”.
With `O=C(O)c1ccc(-c2c([C@H]3C[C@H](c4ccc5ccccc5n4)C3)nc3c(N4CCOCC4)ccnn23)cc1` the IC50 [2] was 0.6 nM.
With `O=C(O)c1ccc(-c2c(CCc3ccc4ccccc4n3)nc3c(N4CCOCC4)ccnn23)cc1` the IC50 [2] was 1.2 nM.
`CS(=O)(=O)NC(=O)c1ccc(-c2c(C#Cc3ccc4ccccc4n3)nc3c(N4CCOCC4)ccnn23)cn1` gave an IC50 [2] of 2.1 nM and a Kp at 2 h [4] of 0.01.
In the case of `O=C(O)c1ccc(-c2c(/C=C/c3ccc4ccccc4n3)nc3c(N4CCOCC4)ccnn23)cc1`, the IC50 [2] is reported as 1.5 to 2 nM, the IC50 [7] is reported as 6600 nM and the IC50 [8] is reported as 5900 nM. It also gave an IC50 [9] of 6600 nM, an IC50 [10] of 4000 nM and an IC50 [11] of 5400 nM. The IC50 [12] was 4200 nM, the IC50 [13] was > 10000 nM and the IC50 [14] was 3000 nM. The Ratio IC50 (Homo sapiens [15]) was 200, the Ratio IC50 (Homo sapiens [16]) was 200 and the Ratio IC50 (Homo sapiens [17]) was 200. It also gave a Ratio IC50 (Homo sapiens [18]) of 200, a Ratio IC50 (Homo sapiens [19]) of 200 and a Ratio IC50 (Homo sapiens [20]) of 200. For the same molecule, the Ratio IC50 (Homo sapiens [21]) was 200, the IC50 (Cytochrome P450 3A4) was > 10000 nM and the IC50 (Cytochrome P450 2C9) was > 10000 nM. For the same molecule, the IC50 (Cytochrome P450 2C19) was > 10000 nM, the IC50 (Cytochrome P450 2D6) was > 10000 nM and the IC50 (Cytochrome P450 1A2) was > 10000 nM. For the same molecule, the Stability [22] was “Stable”, the Stability [23] was “Stable” and the Stability [24] was “Stable”. The Stability [25] was “Stable”, the bioavailability [26] was 44% and the Activity [27] was “Non-Toxic”. For the same molecule, the “inhibition (INH)” value [28] was “Not Active”, the Stability [29] was “Stable” and the clearance [30] was 3.3 mL/min/kg. It also gave a half-life [31] of 6 to 6.1 h, a Cmax [32] of 2990 ng/mL and a Vd [33] of 0.47 L/kg. The Activity (Rattus norvegicus [34]) was “inactive”, the Activity (Rattus norvegicus [35]) was “inactive” and the Activity (Pancreatic islet [5]) was “Active”. For the same molecule, the Activity (Rattus norvegicus [36]) was “inactive” and the Activity (Mus musculus) was “inactive”.
`O=C(O)C1CCN(c2ccc(-c3c(/C=C/c4ccc5ccccc5n4)nc4c(N5CCOCC5)ccnn34)cc2)CC1` showed an IC50 [2] of 4.4 nM and a Kp at 2 h [4] of 0.02.
